Key:
JAK3 enzyme [1] = target: T1, JAK3 enzyme (Homo sapiens, UniProt P52333); assay: JAK Caliper Enzyme Assay at 4 μM ATP; type: biochemical
T1 sequence (P52333 1-1124): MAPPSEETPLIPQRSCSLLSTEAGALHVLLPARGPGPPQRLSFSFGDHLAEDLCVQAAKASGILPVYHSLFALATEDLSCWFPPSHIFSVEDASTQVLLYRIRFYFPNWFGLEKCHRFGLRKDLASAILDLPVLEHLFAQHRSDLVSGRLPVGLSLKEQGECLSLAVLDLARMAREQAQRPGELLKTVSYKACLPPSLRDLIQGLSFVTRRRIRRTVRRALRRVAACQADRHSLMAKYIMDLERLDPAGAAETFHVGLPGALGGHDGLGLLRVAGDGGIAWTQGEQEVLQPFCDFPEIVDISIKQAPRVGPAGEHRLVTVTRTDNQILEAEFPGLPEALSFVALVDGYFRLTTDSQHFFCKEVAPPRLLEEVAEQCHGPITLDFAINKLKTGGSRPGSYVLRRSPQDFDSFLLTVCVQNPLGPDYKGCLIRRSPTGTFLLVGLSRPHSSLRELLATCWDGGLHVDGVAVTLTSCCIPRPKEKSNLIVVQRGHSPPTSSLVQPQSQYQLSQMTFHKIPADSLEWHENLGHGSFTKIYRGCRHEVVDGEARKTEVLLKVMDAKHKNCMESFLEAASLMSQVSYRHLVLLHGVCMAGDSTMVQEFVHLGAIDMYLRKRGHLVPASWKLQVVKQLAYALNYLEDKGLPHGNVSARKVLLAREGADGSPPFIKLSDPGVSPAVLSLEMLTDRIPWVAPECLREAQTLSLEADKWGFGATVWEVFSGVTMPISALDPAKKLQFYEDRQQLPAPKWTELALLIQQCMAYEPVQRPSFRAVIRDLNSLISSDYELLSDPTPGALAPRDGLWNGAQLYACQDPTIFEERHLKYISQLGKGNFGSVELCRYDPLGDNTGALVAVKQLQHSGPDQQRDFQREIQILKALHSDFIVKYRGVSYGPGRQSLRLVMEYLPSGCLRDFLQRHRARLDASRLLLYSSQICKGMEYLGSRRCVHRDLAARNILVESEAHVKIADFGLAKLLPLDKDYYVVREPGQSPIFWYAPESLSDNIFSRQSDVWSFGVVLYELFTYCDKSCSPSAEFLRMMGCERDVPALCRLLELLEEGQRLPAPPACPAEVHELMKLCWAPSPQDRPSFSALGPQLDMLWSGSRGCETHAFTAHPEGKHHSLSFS
Procedure: (§1) Test article was solubilized in dimethyl sulfoxide (DMSO) to a stock concentration of 30 mM. An 11-point half log dilution series was created in DMSO with a top concentration of 600 μM. […] Test article and assay controls were added to a 384-well plate. […] Enzyme concentrations and incubation times were optimized for each new enzyme preps and were modified slightly over time to ensure 20%-30% phosphorylation. […] The assay plates were placed on a Caliper Life Science Lab Chip 3000 (LC3000) instrument, and each well was sampled using appropriate separation conditions to measure the unphosphorylated and phosphorylated peptide.

JAK3 enzyme [2] = target: T1, JAK3 enzyme; assay: JAK Caliper Enzyme Assay at 1 mM ATP; type: biochemical
Procedure: as §1

IC50 (JAK3 enzyme [1]) [nM] | IC50 (JAK3 enzyme [2]) [nM] | Compound
13.7 | 1160 | C=CC(=O)N1CCC(N(C)c2cnc3[nH]cc(C(=O)NCC)c3n2)C1 (racemic) [Example 28, Racemic-2-[(1-acryloylpyrrolidin-3-yl)(methyl)amino]-N-ethyl-5H-pyrrolo[2,3-b]pyrazine-7-carboxamide]
2.5 | 606 | C=CC(=O)N1C[C@H](Nc2cnc3[nH]cc(C(=O)NCCOC)c3n2)[C@@](C)(C#N)C1 [Example 232, 2-{[(3R,4S)-1-acryloyl-4-cyano-4-methylpyrrolidin-3-yl]amino}-N-(2-methoxyethyl)-5H-pyrrolo[2,3-b]pyrazine-7-carboxamide]
10.7 | 1110 | C#CCNC(=O)c1c[nH]c2ncc(N3CCN(C(=O)C=C)C(C)(C)C3)nc12 [Example 83, 2-(4-acryloyl-3,3-dimethylpiperazin-1-yl)-N-(prop-2-yn-1-yl)-5H-pyrrolo[2,3-b]pyrazine-7-carboxamide]
3.62 | 411 | C=CC(=O)N1CCC(Oc2cnc3[nH]cc(C(=O)NCC4(O)CCC(C)C4)c3n2)CC1 (racemic) [Example 201, Racemic-2-[(1-acryloylpiperidin-4-yl)oxy]-N-[(1-hydroxy-3-methylcyclopentyl)methyl]-5H-pyrrolo[2,3-b]pyrazine-7-carboxamide]
6.86 | 865 | C=CC(=O)N1CC[C@H](N(C)c2cnc3[nH]cc(C(=O)NCC)c3n2)C1 (single isomer, unassigned) [Example 30]
4.4 | 713 | C=CC(=O)N1CCC(Oc2cnc3[nH]cc(C(=O)NCC(C)(C)C)c3n2)CC1 [Example 221, 2-[(1-acryloylpiperidin-4-yl)oxy]-N-(2,2-dimethylpropyl)-5H-pyrrolo[2,3-b]pyrazine-7-carboxamide]
3.78 | 757 | C=CC(=O)N1C[C@H](Nc2cnc3[nH]cc(C(=O)NCC)c3n2)C[C@H]1COC [Example 239, 2-{[(3R,5S)-1-acryloyl-5-(methoxymethyl)pyrrolidin-3-yl]amino}-N-ethyl-5H-pyrrolo[2,3-b]pyrazine-7-carboxamide]
4.07 | 831 | C=CC(=O)N1CC[C@H](Nc2cnc3[nH]cc(C(=O)N[C@@H](C)COC)c3n2)[C@H](OC)C1 (single isomer, unassigned) [Example 356]
2.12 | 430 | C=CC(=O)N1CCC(Oc2cnc3[nH]cc(C(=O)NCC4(O)CC[C@@H](C)C4)c3n2)CC1 (mixture of isomers) [Example 226]
17.9 | 2270 | C=CC(=O)N1CC[C@@H](Nc2cnc3[nH]cc(C(=O)NCC)c3n2)C1 [Example 234, 2-{[(3R)-1-acryloylpyrrolidin-3-yl]amino}-N-ethyl-5H-pyrrolo[2,3-b]pyrazine-7-carboxamide]
5.12 | 1320 | C=CC(=O)N1C[C@H](Nc2cnc3[nH]cc(C(=O)NCC)c3n2)[C@](C)(C#N)C1 [Example 251, 2-{[(3R,4R)-1-acryloyl-4-cyano-4-methylpyrrolidin-3-yl]amino}-N-ethyl-5H-pyrrolo[2,3-b]pyrazine-7-carboxamide]
2.14 | 676 | C=CC(=O)N1C[C@H](C)[C@H](Nc2cnc3[nH]cc(C(=O)NCC)c3n2)C1 (stereo in doubt) [Example 260, 2-[(1-acryloyl-4-methylpyrrolidin-3-yl)amino]-N-ethyl-5H-pyrrolo[2,3-b]pyrazine-7-carboxamide]
52.4 | 6460 | C=CC(=O)N1C[C@@H](CC)[C@@H](Nc2cnc3[nH]cc(C(=O)NCC)c3n2)C1 [Example 263, 2-{[(3R,4R)-1-acryloyl-4-ethylpyrrolidin-3-yl]amino}-N-ethyl-5H-pyrrolo[2,3-b]pyrazine-7-carboxamide]

Further lines, the compound ahead of its results:

Compound | IC50 (JAK3 enzyme [1]) [nM] | IC50 (JAK3 enzyme [2]) [nM]
C=CC(=O)N1CC(Nc2cnc3[nH]cc(C(=O)NCC(F)(F)F)c3n2)C2(CC2)C1 (stereo not drawn) [Example 242, 2-[(5-acryloyl-5-azaspiro[2.4]hept-7-yl)amino]-N-(2,2,2-trifluoroethyl)-5H-pyrrolo[2,3-b]pyrazine-7-carboxamide] | 62.1 | > 10000
C=CC(=O)N1CCN(c2cnc3[nH]cc(C(=O)N[C@@H]4C[C@H]4C(F)(F)F)c3n2)CC1 [Example 287, 2-(4-acryloylpiperazin-1-yl)-N-[(1R,2R)-2-(trifluoromethyl)cyclopropyl]-5H-pyrrolo[2,3-b]pyrazine-7-carboxamide] | 2.71 | 499
C=CC(=O)N1CCN(c2cnc3[nH]cc(C(=O)NC(C)(C)COC)c3n2)CC1(C)C [Example 151, 2-(4-acryloyl-3,3-dimethylpiperazin-1-yl)-N-(1-methoxy-2-methylpropan-2-yl)-5H-pyrrolo[2,3-b]pyrazine-7-carboxamide] | 13.6 | 1520
C=CC(=O)N1CCC(Oc2cnc3[nH]cc(C(=O)NCCCC)c3c2)CC1 [Example 348, 5-[(1-acryloylpiperidin-4-yl)oxy]-N-butyl-1H-pyrrolo[2,3-b]pyridine-3-carboxamide] | 10.2 | 1190
C=CC(=O)N1CCC(Oc2cnc3[nH]cc(-c4ncnn4C)c3n2)CC1 [Example 122, 1-(4-{[7-(1-Methyl-1H-1,2,4-triazol-5-yl)-5H-pyrrolo[2,3-b]pyrazin-2-yl}oxy)piperidin-1-yl]prop-2-en-1-one] | 8.97 | 1470
C=CC(=O)N1CCN(c2cnc3[nH]cc(C(=O)NC(CO)c4ccccc4F)c3n2)CC1(C)C (racemic) [Example 154, Racemic-2-(4-acryloyl-3,3-dimethylpiperazin-1-yl)-N-[1-(2-fluorophenyl)-2-hydroxyethyl]-5H-pyrrolo[2,3-b]pyrazine-7-carboxamide] | 4.68 | 590
C=CC(=O)N1CCN(c2cnc3[nH]cc(C(=O)N[C@@H](CO)c4ccc(F)cc4)c3n2)CC1(C)C [Example 146, 2-(4-acryloyl-3,3-dimethylpiperazin-1-yl)-N-[(1R)-1-(4-fluorophenyl)-2-hydroxyethyl]-5H-pyrrolo[2,3-b]pyrazine-7-carboxamide] | 12.2 | 1370
C=CC(=O)N1CC(Nc2cnc3[nH]cc(C(=O)NCCC(F)(F)F)c3n2)C2(CC2)C1 (stereo not drawn) [Example 252, 2-[(5-acryloyl-5-azaspiro[2.4]hept-7-yl)amino]-N-(3,3,3-trifluoropropyl)-5H-pyrrolo[2,3-b]pyrazine-7-carboxamide] | 110 | > 10000
C=CC(=O)N1CCC(Nc2cnc3[nH]cc(C(=O)NCc4nc5ccc(F)cc5o4)c3n2)CC1 [Example 194, 2-[(1-acryloylpiperidin-4-yl)amino]-N-[(6-fluoro-1,3-benzoxazol-2-yl)methyl]-5H-pyrrolo[2,3-b]pyrazine-7-carboxamide] | 0.993 | 22
C=CC(=O)N1CCN(c2cnc3[nH]cc(C(=O)NCCCC(F)(F)F)c3n2)CC1(C)C [Example 272, 2-(4-acryloyl-3,3-dimethylpiperazin-1-yl)-N-(4,4,4-trifluorobutyl)-5H-pyrrolo[2,3-b]pyrazine-7-carboxamide] | 3.82 | 651
C=CC(=O)N1CCC(Oc2cnc3[nH]cc(C(=O)NCC4(O)CCCC[C@@H]4F)c3n2)CC1 (mixture of isomers) [Example 224, Racemic-2-[(1-acryloylpiperidin-4-yl)oxy]-N-{[(2S)-2-fluoro-1-hydroxycyclohexyl]methyl}-5H-pyrrolo[2,3-b]pyrazine-7-carboxamide] | 3.54 | 526
